Experimental data: publication PMC11371790, “Combination of transcriptomic and proteomic approaches helps unravel the mechanisms of luteolin in inducing liver cancer cell death via targeting AKT1 and SRC” (Frontiers in Pharmacology, 2024)

Legend:
SRC = SRC (Homo sapiens, UniProt P12931); experiment: bio-layer interferometry (biotinylated SRC on SSA sensor, Octet K2); type: binding
AKT1 = AKT1 (Homo sapiens, UniProt P31749); experiment: bio-layer interferometry (biotinylated active AKT1, Carna […]-101, on SSA sensor, Octet K2); type: binding
AKT1, sequence (P31749 whole entry): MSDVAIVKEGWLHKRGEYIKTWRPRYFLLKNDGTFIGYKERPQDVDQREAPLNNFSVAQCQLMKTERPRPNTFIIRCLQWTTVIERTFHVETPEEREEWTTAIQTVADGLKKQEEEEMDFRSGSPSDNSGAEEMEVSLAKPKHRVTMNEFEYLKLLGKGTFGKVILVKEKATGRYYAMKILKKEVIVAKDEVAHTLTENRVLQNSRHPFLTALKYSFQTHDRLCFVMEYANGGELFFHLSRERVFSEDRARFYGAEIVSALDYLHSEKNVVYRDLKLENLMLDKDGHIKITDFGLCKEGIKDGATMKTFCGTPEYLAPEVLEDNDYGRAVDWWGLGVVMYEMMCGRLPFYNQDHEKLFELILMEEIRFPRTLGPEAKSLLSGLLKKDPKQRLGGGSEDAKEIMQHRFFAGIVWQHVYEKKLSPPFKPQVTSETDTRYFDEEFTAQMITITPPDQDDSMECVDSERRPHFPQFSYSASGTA

SRC, sequence (P12931 2-536): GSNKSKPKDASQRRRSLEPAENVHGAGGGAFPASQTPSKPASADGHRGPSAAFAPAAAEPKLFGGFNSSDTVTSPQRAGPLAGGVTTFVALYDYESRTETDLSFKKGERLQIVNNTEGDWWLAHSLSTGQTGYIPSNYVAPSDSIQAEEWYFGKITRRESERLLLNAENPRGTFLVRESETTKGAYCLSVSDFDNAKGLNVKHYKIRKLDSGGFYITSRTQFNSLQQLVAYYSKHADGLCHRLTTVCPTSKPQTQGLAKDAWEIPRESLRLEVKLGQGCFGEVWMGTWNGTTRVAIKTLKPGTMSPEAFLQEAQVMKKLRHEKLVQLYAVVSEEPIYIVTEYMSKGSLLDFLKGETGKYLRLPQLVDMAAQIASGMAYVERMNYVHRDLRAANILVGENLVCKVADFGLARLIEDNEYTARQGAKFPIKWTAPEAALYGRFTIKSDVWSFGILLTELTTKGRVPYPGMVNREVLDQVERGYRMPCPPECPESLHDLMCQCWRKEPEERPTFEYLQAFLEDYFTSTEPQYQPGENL

## O=c1cc(-c2ccc(O)c(O)c2)oc2cc(O)cc(O)c12 [Luteolin]
SRC
  Kd: 1.7 µM
AKT1
  Kd: 7.86 µM
